We go through 2 molecules from patent publication US7943646B2, “Benzamidine derivative, process for the preparation thereof and pharmaceutical composition comprising same” (Dong Wha Pharmaceutical Co., Ltd., priority 2006, dated 2011).

Read-outs that look alike come from different tables or passages of the source.

Data set [1] has as its system HOS. Kind of data set: Cytotoxicity test (MTT), HOS. In kind it is cell-based. As to conditions: 10^−6M, 72 hrs, in comparison with the control group.
In data set [2] the test system is MC3T3. Description: Cytotoxicity test (MTT), MC3T3. The note with it: 10^−6M, 72 hrs, in comparison with the control group. The class given is cell-based.
Data set [3] has as its system ovariectomized white mouse. Description: Therapeutic effect in mouse model of osteoporosis induced by ovariectomy, trabecular bone volume of the femur by histomorphometry. In kind it is in vivo. The note with it: read-out: Changes in trabecular bone volume (% relative to vehicle control). How it is done:
The therapeutic effect of each benzamidine derivate of the present invention was evaluated on the ovariectomized white mouse. The substances of Examples 18, 19 and 72 were administered from 4 weeks after operation for 4 weeks and the substances of Examples 27, 33, 36, 47, 53 and 59 were administered from 3 days after operation for 29 days. Thereafter, the changes in the trabecular bone volume (TBV) of the femur were observed via histomorphometry.
Female ddY mice (6-week-old, SLC, Japan) were used after acclimatization for 7 days. Animals to be test were allocated 5 per a plastic cage for mice, and raised in a temperature (20 to 25[…]) and humidity (30 to 35%) controlled room. Feed and water were supplied free to access.
Salts of the benzamidine derivative of the present invention (methanesulfonic acid or HCl) were dissolved or suspended in sterilized, distilled water or 5% DMSO, and administered at a dose of 10 ml per body weight (kg) in the form of a solution. The substances of Examples 18, 19 and 72 were administered from 4 weeks after operation for 4 weeks, and the substances of Examples 27, 33, 36, 47, 53 and 59 were administered from 3 days after operation for 29 days each at 50 mg/kg/day.
After all animals anesthetize using ketamine hydrochloride and xylazine hydrochloride, bilateral ovaries were removed in order to induce estrogen-deficient osteoporosis. After ovariectomy, the […] were closed by routine methods.
The left femur was separated at a final sacrifice day, and fixed in 10% neutral formalin, then decalcified in a decalcifying solution (solution composed of 2.44% formic acid, and 0.5 N sodium hydroxide). The decalcifying solution was exchanges once a day for 5 days. After completion of the decalcification, the femur was embedded in paraffin, sectioned (3 to 4 μM), and stained with a hematoxylin-eosin stain. Observation was made using optical micrography.
The trabecular bone volume was calculated using automated image analysis (analysis Image Processing; SIS, Germany) in the femur using a femur histological specimen prepared in the above manner. The trabecular bone volume was calculated as percentage (%) levels.
All the numeral values were determined and compared to that of the vehicle control used in each experiment, using the calculation by the following Equation 1. Change(%)=[(trabecular bone volume of a−trabecular bone volume of b)/trabecular bone volume of b]×100 [Equation 1]
a: Experiment group, b: Vehicle group

For data set [4], the system named is calvaria. Description: Cytotoxicity test (MTT), calvaria. In kind it is cell-based. The note with it: 10^−6M, 72 hrs, in comparison with the control group.
Data set [5] deals with osteoclast differentiation. Description: Inhibitory effect on osteoclast differentiation, co-culture of bone marrow cells and osteoblast, TRAP staining. As to conditions: Mus musculus, Osteoclast, 168 h, read-out: inhibitory effect on osteoclast differentiation(%). The class given is cell-based, mouse. In a few lines: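 Mouse ddY bone marrow cells (25,000/cm^2) were co-cultured with neonatal ICR calvarial osteoblasts (10,000/cm^2) and compound for 7 days, with 10^−7 M dexamethasone and 10^−8 M vitamin D3, refreshed every 2–3 days. TRAP-positive cells with ≥3 nuclei were counted and expressed as % inhibition versus negative controls.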

For the molecule `Cc1nc(-c2ccc(OCCCCCOc3ccc(C(=N)NO)cc3)cc2)c(CCN2CCOCC2)s1` [Example 18, N-hydroxy-4-(5-{4-[2-methyl-5-(2-morpholin-4-yl-ethyl)-thiazol-4-yl]-phenoxy}-pentyloxy)-benzamidine], the “survival rates of the cells” value came to 99.7% in data set [1], 94.4% in data set [2] and 97.3% in data set [4]. Further, the change in vivo at 50 mg/kg/day in data set [3] (672 h) was found to be 139%. The inhibition at 1 µM in data set [5] was 100%.
`N=C(NO)c1ccc(OCCCCCOc2ccc(-c3nc(C4CCCCC4)sc3CCN3CCSCC3)cc2)cc1` [Example 36, N-hydroxy-4-(5-{4-[2-cyclohexyl-5-(2-thiomorpholin-4-yl-ethyl)-thiazol-4-yl]-phenoxy}-pentyloxy)-benzamidine]: the “survival rates of the cells” value in data set [1] worked out at 81.4%; in data set [2], 97.6%; in data set [4] it was 89.1%. In addition, the change in vivo at 50 mg/kg/day in data set [3] (696 h) worked out at 26.6%. Also, in data set [5], the inhibition at 1 µM amounted to 100%.
